In EP2524688B1, “Composition for modified release comprising ranolazine” (ratiopharm GmbH, priority 2011, dated 2012):

Experiment: Stability under stressed conditions (assay and degradation products)
Type: physicochemical
Details: storage over 5 weeks at 40 °C with 75 % RH and open cap
Procedure: In Table 1 assay and degradation products results for ranolazine per se, a pharmaceutical composition of the present invention, comprising ranolazine and HPMC-AS as well as a comparative pharmaceutical composition known from the prior art under stressed conditions are shown. Herein the stressed conditions are defined as storage over 5 weeks at 40 °C with 75 % RH and open cap.

SMILES: COc1ccccc1OCC(O)CN1CCN(CC(=O)Nc2c(C)cccc2C)CC1 (racemic) [Ranolazine (raw material), (RS)-N-(2,6-Dimethylphenyl)-2-[4-[2-hydroxy-3-(2-methoxyphenoxy)propyl]piperazin-1-yl]acetamide]
- Assay (%): 99.6%
- Biggest impurity % (RRt) (RRt in brackets in the row below): 0.066%
